Reference: PubChem BioAssay AID328 (DTP/NCI, 2004)
Several values for one entry are separate records, joined by “and”; a condition that tells them apart may be missing. Equal entries are not always repeated. Inconclusive results and toxic doses are left out. Rule for the calls: active = survival T/C of 150% or more; inactive = T/C below 125% in these data.

Tested on: BDF1 mice, P388 leukemia ip, median survival T/C
Assay: NCI In Vivo Anticancer Drug Screen. Data for tumor model P388 Leukemia (intraperitoneal) in B6D2F1 (BDF1) mice
Settings: endpoint: median survival time, higher = longer survival
Method in brief: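 Compound-treated tumour-bearing mice were compared with vehicle-treated controls. Survival was recorded, and the value is the treated-group measurement divided by the control-group measurement (T/C).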

[1] = dose: 50.0 mg/kg/injection, schedule: Q01DX009 (ip), vehicle: saline
[2] = dose: 100.0 mg/kg/injection, schedule: Q01DX009 (ip), vehicle: saline
[3] = dose: 100.0 mg/kg/injection, schedule: Q01DX009 (ip), vehicle: water
[4] = dose: 100.0 mg/kg/injection, schedule: Q04DX003 (ip), vehicle: saline
[5] = dose: 100.0 mg/kg/injection, schedule: Q04DX003 (ip), vehicle: water
[6] = dose: 200.0 mg/kg/injection, schedule: Q01DX009 (ip), vehicle: water
[7] = dose: 200.0 mg/kg/injection, schedule: Q04DX003 (ip), vehicle: saline
[8] = dose: 200.0 mg/kg/injection, schedule: Q04DX003 (ip), vehicle: water
[9] = dose: 400.0 mg/kg/injection, schedule: Q04DX003 (ip), vehicle: water
[10] = dose: 50.0 mg/kg/injection, schedule: Q01DX009 (ip), vehicle: saline with Tween-80
[11] = dose: 200.0 mg/kg/injection, schedule: Q01DX009 (ip), vehicle: saline with Tween-80
[12] = dose: 50.0 mg/kg/injection, schedule: Q01DX009 (ip), vehicle: Klucel (hydroxypropylcellulose) (HPC)
[13] = dose: 100.0 mg/kg/injection, schedule: Q01DX009 (ip), vehicle: Klucel (hydroxypropylcellulose) (HPC)
[14] = dose: 100.0 mg/kg/injection, schedule: Q04DX003 (ip), vehicle: Klucel (hydroxypropylcellulose) (HPC)
[15] = dose: 200.0 mg/kg/injection, schedule: Q01DX009 (ip), vehicle: Klucel (hydroxypropylcellulose) (HPC)
[16] = dose: 200.0 mg/kg/injection, schedule: Q04DX003 (ip), vehicle: Klucel (hydroxypropylcellulose) (HPC)
[17] = dose: 50.0 mg/kg/injection, schedule: Q04DX003 (ip), vehicle: saline with Tween-80
[18] = dose: 100.0 mg/kg/injection, schedule: Q04DX003 (ip), vehicle: saline with Tween-80
[19] = dose: 200.0 mg/kg/injection, schedule: Q04DX003 (ip), vehicle: saline with Tween-80
[20] = dose: 400.0 mg/kg/injection, schedule: Q04DX003 (ip), vehicle: saline with Tween-80
[21] = dose: 400.0 mg/kg/injection, schedule: Q04DX003 (ip), vehicle: Klucel (hydroxypropylcellulose) (HPC)
[22] = dose: 100.0 mg/kg/injection, schedule: Q01DX009 (ip), vehicle: saline with Tween-80
[23] = dose: 12.5 mg/kg/injection, schedule: Q01DX009 (ip), vehicle: water
[24] = dose: 25.0 mg/kg/injection, schedule: Q01DX009 (ip), vehicle: water
[25] = dose: 50.0 mg/kg/injection, schedule: Q01DX009 (ip), vehicle: water

Measured: T/C

CCOC(=O)C(C)(OCC)OCC
inactive: [1] 105 % of control | [2] 110 % of control | [3] 98 % of control | [4] 100 % of control | [5] 104 % of control | dose: 200.0 mg/kg/injection, schedule: Q01DX009 (ip), vehicle: saline 115 % of control | [6] 101 % of control | [7] 91 % of control | [8] 95 % of control | dose: 400.0 mg/kg/injection, schedule: Q04DX003 (ip), vehicle: saline 91 % of control | [9] 100 % of control

CCSC1(SCC)C(=O)OC2=C(CCCCC2)C1N(C)c1ccccc1 (configuration not stated)
inactive: [10] 87 % of control | [11] 96 % of control

COC1(c2ccccc2)CN(Cc2ccccc2)CCO1 (configuration not stated)
inactive: [12] 113 % of control | [13] 118 % of control | [14] 113 % of control | [15] 95 % of control | [16] 113 % of control

CSc1cccc(NC(=O)Nc2onc(C)c2C)c1
inactive: dose: 12.5 mg/kg/injection, schedule: Q01DX009 (ip), vehicle: Klucel (hydroxypropylcellulose) (HPC) 101 % of control | dose: 25.0 mg/kg/injection, schedule: Q01DX009 (ip), vehicle: Klucel (hydroxypropylcellulose) (HPC) 99 % of control | [12] 101 % of control

CCN(CC)c1c(C)nnc2c3c(-c4ccccc4)c(-c4ccccc4)nnc3nn12
inactive: [17] 91 % of control and 97 % of control (2×) | [18] 88 % of control and 91 % of control and 97 % of control | [19] 97 % of control and 108 % of control and 123 % of control | [20] 92 % of control and 113 % of control

O=c1[nH]cnc2sc3c(c12)CCCC3
inactive: dose: 100.0 mg/kg/injection, schedule: Q04DX003 (ip), vehicle: saline sonified 95 % of control | dose: 200.0 mg/kg/injection, schedule: Q04DX003 (ip), vehicle: saline sonified 100 % of control | dose: 400.0 mg/kg/injection, schedule: Q04DX003 (ip), vehicle: saline sonified 100 % of control

CC(=O)C(C(c1ccccc1)C1CCCc2ccccc21)N1CCOCC1 (configuration not stated)
inactive: [13] 100 % of control | [14] 105 % of control | [15] 109 % of control | [16] 100 % of control | dose: 400.0 mg/kg/injection, schedule: Q01DX009 (ip), vehicle: Klucel (hydroxypropylcellulose) (HPC) 104 % of control | [21] 100 % of control

O=C(c1ccccc1)N1C=CN(C(=O)c2ccccc2)C1c1ncc[nH]1
inactive: [10] 105 % of control | [22] 105 % of control | [11] 106 % of control

C[n+]1c(-c2ccc(Cl)cc2Cl)c2cc([N+](=O)[O-])ccc2c2ccccc21
inactive: dose: 3.12 mg/kg/injection, schedule: Q01DX009 (ip), vehicle: water 104 % of control | dose: 6.25 mg/kg/injection, schedule: Q01DX009 (ip), vehicle: water 88 % of control and 104 % of control and 112 % of control | [23] 110 % of control and 119 % of control | [24] 104 % of control (2×) and 112 % of control | [25] 101 % of control

O=[N+]([O-])c1ccccc1N/N=C\c1c(Cl)n(-c2ccccc2)c2ccccc12
inactive: dose: 100.0 mg/kg/injection, schedule: Q04DX002 (ip), vehicle: Klucel (hydroxypropylcellulose) (HPC) 90 % of control | dose: 200.0 mg/kg/injection, schedule: Q04DX002 (ip), vehicle: Klucel (hydroxypropylcellulose) (HPC) 99 % of control | dose: 400.0 mg/kg/injection, schedule: Q04DX002 (ip), vehicle: Klucel (hydroxypropylcellulose) (HPC) 115 % of control

Nc1ccc(OS(=O)(=O)c2ccccc2)cc1
inactive: [10] 98 % of control | [22] 108 % of control | [11] 100 % of control | dose: 400.0 mg/kg/injection, schedule: Q01DX009 (ip), vehicle: saline with Tween-80 90 % of control

CSC(=S)N/N=C(\C)C1CCCC[N-]1.[Cl][Zn][Cl] (configuration not stated)
inactive: dose: 12.5 mg/kg/injection, schedule: Q01DX009 (ip), vehicle: saline with Tween-80 105 % of control | dose: 25.0 mg/kg/injection, schedule: Q01DX009 (ip), vehicle: saline with Tween-80 119 % of control | [10] 118 % of control

CCOS(C)(=O)=O
inactive: [1] 90 % of control | [2] 100 % of control | [4] 100 % of control | [7] 105 % of control

O=C(CBr)c1ccc(F)cc1
inactive: dose: 0.78 mg/kg/injection, schedule: Q01DX009 (ip), vehicle: Klucel (hydroxypropylcellulose) (HPC) 110 % of control | dose: 1.56 mg/kg/injection, schedule: Q01DX009 (ip), vehicle: Klucel (hydroxypropylcellulose) (HPC) 110 % of control | dose: 3.12 mg/kg/injection, schedule: Q01DX009 (ip), vehicle: Klucel (hydroxypropylcellulose) (HPC) 112 % of control | dose: 6.25 mg/kg/injection, schedule: Q01DX009 (ip), vehicle: Klucel (hydroxypropylcellulose) (HPC) 118 % of control

CN(C)c1ccc(Cc2ccc(N(C)C)cc2[N+](=O)[O-])c([N+](=O)[O-])c1
inactive: [14] 104 % of control | [16] 100 % of control | [21] 95 % of control

CCOC(=O)C1SC(=S)N(C)C1=O (configuration not stated)
inactive: [10] 94 % of control | [22] 100 % of control | [11] 100 % of control

O=c1oc2c(c(N(c3ccccc3)c3ccccc3)c1Cl)CSc1ccccc1-2
inactive: dose: 25.0 mg/kg/injection, schedule: Q04DX003 (ip), vehicle: saline with Tween-80 100 % of control | [17] 93 % of control | [18] 90 % of control

FC(F)(F)c1nc2cccc3c2n1CCC3
inactive: [17] 100 % of control | [18] 91 % of control

C=C(C)CSC(=S)NNc1ccccc1
inactive: dose: 37.5 mg/kg/injection, schedule: Q04DX003 (ip), vehicle: acetone 109 % of control | dose: 56.25 mg/kg/injection, schedule: Q01DX009 (ip), vehicle: Klucel (hydroxypropylcellulose) (HPC) 115 % of control | dose: 75.0 mg/kg/injection, schedule: Q04DX003 (ip), vehicle: acetone 100 % of control | dose: 100.0 mg/kg/injection, schedule: Q01DX001 (ip), vehicle: alcohol 100 % of control | dose: 112.5 mg/kg/injection, schedule: Q01DX009 (ip), vehicle: Klucel (hydroxypropylcellulose) (HPC) 110 % of control | dose: 150.0 mg/kg/injection, schedule: Q01DX009 (ip), vehicle: Klucel (hydroxypropylcellulose) (HPC) 115 % of control | dose: 150.0 mg/kg/injection, schedule: Q01DX009 (ip), vehicle: alcohol 109 % of control | dose: 150.0 mg/kg/injection, schedule: Q04DX003 (ip), vehicle: acetone 104 % of control | dose: 200.0 mg/kg/injection, schedule: Q01DX001 (ip), vehicle: alcohol 104 % of control | dose: 225.0 mg/kg/injection, schedule: Q01DX009 (ip), vehicle: Klucel (hydroxypropylcellulose) (HPC) 115 % of control | dose: 225.0 mg/kg/injection, schedule: Q04DX003 (ip), vehicle: alcohol 100 % of control | dose: 335.0 mg/kg/injection, schedule: Q01DX009 (ip), vehicle: Klucel (hydroxypropylcellulose) (HPC) 115 % of control | dose: 340.0 mg/kg/injection, schedule: Q04DX003 (ip), vehicle: alcohol 95 % of control

CC(Cl)(Cl)CC(O)(C(F)(F)F)C(F)(F)F
inactive: [17] 95 % of control | [18] 90 % of control | [19] 90 % of control

BrCCC1(CCBr)CCCCC1
inactive: [23] 113 % of control | [24] 97 % of control | [25] 96 % of control | dose: 50.0 mg/kg/injection, schedule: Q04DX003 (ip), vehicle: water 106 % of control | [3] 99 % of control | [5] 111 % of control | [6] 108 % of control | [8] 106 % of control | dose: 300.0 mg/kg/injection, schedule: Q04DX003 (ip), vehicle: water 107 % of control | dose: 400.0 mg/kg/injection, schedule: Q01DX009 (ip), vehicle: water 118 % of control | [9] 122 % of control | dose: 500.0 mg/kg/injection, schedule: Q04DX003 (ip), vehicle: water 109 % of control

CC(C#N)(Nc1ccccc1)c1ccccc1 (configuration not stated)
inactive: [18] 95 % of control | [19] 100 % of control | [20] 100 % of control
